Entries after “also recorded” stand apart in the source; their conditions may differ.
Legend:
C. difficile [1] = assay: Phytochemical microbial killing assay, panel of gut bacterial pathogens; format: cell-based, Clostridioides difficile; conditions: 150 μM, media with glucose, growth ratio (AUC) vs vehicle, panel of gut bacterial pathogens (FIG. 3A)
Experimental: Growth is measured as the ratio of growth in media (AUC) supplemented with glucose and 150 μM glycoside or aglycone versus growth in media (AUC) supplemented with glucose and vehicle. Value>1 is representative of enhanced growth in compound and value<1 is representative of inhibition of growth in compound.
Phytochemical microbial killing assays: All gut pathogen isolates were grown on brain-heart-infusion supplemented with hemin (50 mg/L) and vitamin K1 (0.25 mg/L) (BHIS) agar plates or in basal media (BSG; proteose peptone (20 g/L), yeast (5 g/L), NaCl (5 g/L), glucose (5 g/L), potassium phosphate dibasic (5 g/L), cysteine (0.5 g/L), hemin (50 mg/L), and vitamin K1 (0.25 mg/L). Isolates were recovered on and grown in pre-reduced media in a Coy anaerobic chamber (Coy Labs). To determine the fitness effects of phloridzin hydrate (TCI), phloretin (TCI), polydatin (TCI), and resveratrol (TCI) on enteric pathogen fitness, each pathogen isolate was recovered on a BHIS agar plate and incubated anaerobically at 37 °C for 48 h. A starter culture (1 mL) of BSG was inoculated with C. difficile and grown for 15 h. […] Bacterial growth was monitored by measuring the optical density at 600 nm (OD600) of each culture in a 384 well plate with an Epoch2 spectrophotometer (BioTek Instruments) and MicroPlate stacker (Agilent BioTek) for 24 hours.

B. uniformis = assay: In vitro aglycone liberation by wildtype B. uniformis (LC-MS); set-up: species or system Bacteroides uniformis ATCC 8492; conditions: role: product; B. uniformis culture supplemented with glycoside, after eight hours, LC-MS EIC (FIG. 2)
Excerpt: Comparative LC-MS EICs (Extracted Ion Chromatogram) of methanol-water extracts of bacterial cultures supplemented with each polyphenolic glycoside after eight hours are provided. The trace labeled “A” corresponds to the EIC of each glycoside, and the trace labeled “B” corresponds to the EIC of each aglycone. The portion of the trace “B” peak overlapping the trace “A” peak corresponds to the aglycone detected from fragmentation of the glycoside at the ionization source and is a technical artifact.
FIGS. 5A and 5B show microbiome-mediated polyphenol aglycone liberation. […] Step 2: Spent media was filter-sterilized. Step 3: C. difficile was grown in spent media from either vehicle or polydatin (top).
In vitro aglycone liberation: All B. uniformis strains were grown on brain-heart-infusion supplemented with hemin (50 mg/L) and vitamin K1 (0.25 mg/L) (BHIS) agar plates or in basal media (BSG; proteose peptone (20 g/L), yeast (5 g/L), NaCl (5 g/L), glucose (5 g/L), potassium phosphate dibasic (5 g/L), cysteine (0.5 g/L), hemin (50 mg/L), and vitamin K1 (0.25 mg/L). All isolates were recovered on and grown in pre-reduced media in a Coy anaerobic chamber (Coy Labs).
To assess the capacity of Bacteroides to liberate aglycones from their parent polyphenolic glycosides, B. uniformis ATCC 8492 WT and AgshD were recovered on a BHIS agar plate and incubated anaerobically at 37 °C for 48 h. A starter culture (1 mL) of BSG was inoculated with each isolate and grown for 15 h. This starter culture was then used to inoculate a BSG sub-culture (1 mL) at a final dilution of 1:10. […]
For polyphenolic glycoside and aglycone-containing samples, samples were dried under nitrogen flow and resuspended in 50 μl of methanol 50% in water. […] Samples were quantified on a QEplus mass spectrometer coupled to an Ultimate 3000 LC (Thermo fisher). […] Quantification was performed using Tracefinder (Thermo fisher), using the ratio of the area under the peak for each compound and of the internal standard, using the accurate mass of the [M−H]^− ions.

C. difficile [2] = assay: C. difficile infection (CDI) mouse model, C. difficile burden (CFU); format: in vivo, mouse (C57BL/6J) infected with Clostridioides difficile; conditions: infected mice; for anti-microbial effect on C. difficile in vivo: 500 μM in drinking water, CFU at day one and day two (FIG. 3C); for C. difficile burden in vivo: pure compound administered (FIGS. 6A-6B)
Experimental: (§1) FIG. 3B provides a heatmap of growth of 20 Clostridioides difficile isolates in the absence of presence of the polyphenolic glycoside polydatin or the Bacteroides liberated aglycone resveratrol. […] Growth induction or inhibition is measured as the ratio of growth in media (AUC) supplemented with glucose and 150 μM polydatin or resveratrol versus growth in media (AUC) supplemented with glucose and vehicle. Value>1 is representative of enhanced growth in compound and value <1 is representative of inhibition of growth in compound.
C. difficile infection (CDI) model: An antibiotic-treatment-induced CDI mouse model developed previously was used for the infection model. Briefly, six-to eight-week-old male and female SPF C57BL/6J WT mice were treated for three days with a mixture of antibiotics including vancomycin (0.4 mg/mL, Sigma) colistin (850 U/mL, Sigma), metronidazole (0.215 mg/mL, Sigma), gentamicin (0.035 mg/mL, RPI), and kanamycin (0.045 mg/mL, Sigma) in their drinking water. Mice were then treated with regular water for two days and then injected intraperitoneal (IP) with clindamycin (10 mg/kg, Mylan Pharmaceuticals) in normal saline. After one day, mice were gavaged with […] of C. difficile M7404 diluted in PBS. Stool was collected from mice at one day and two days post infection, and immediately taken for assessment of C. difficile infection load.
C. difficile colony-forming units (CFUs): Mouse feces were collected from mice on day one and day two of C. difficile infection. Feces were weighed and resuspended to 50 mg/mL in pre-reduced 1× PBS. CFUs were enumerated by plating multiple dilutions on pre-reduced commercial ChromID C. difficile -selective plates (Biomerieux) after incubation for 24 hours at 37 °C in an anaerobic chamber (Coy Labs).

C. difficile isolates = assay: Phytochemical microbial killing assay, diverse C. difficile isolates; format: cell-based, Clostridioides difficile
Experimental: as §1
Bacterial isolates were grown in vitro in media plus compound. Killing was measured by bacterial culture optical density (proxy for amount of bacteria in a culture).
Phytochemical microbial killing assays: All gut pathogen isolates were grown on brain-heart-infusion supplemented with hemin (50 mg/L) and vitamin K1 (0.25 mg/L) (BHIS) agar plates or in basal media (BSG; proteose peptone (20 g/L), yeast (5 g/L), NaCl (5 g/L), glucose (5 g/L), potassium phosphate dibasic (5 g/L), cysteine (0.5 g/L), hemin (50 mg/L), and vitamin K1 (0.25 mg/L). Isolates were recovered on and grown in pre-reduced media in a Coy anaerobic chamber (Coy Labs). To determine the fitness effects of phloridzin hydrate (TCI), phloretin (TCI), polydatin (TCI), and resveratrol (TCI) on enteric pathogen fitness, each pathogen isolate was recovered on a BHIS agar plate and incubated anaerobically at 37 °C for 48 h. A starter culture (1 mL) of BSG was inoculated with C. difficile and grown for 15 h. This starter culture was then used to inoculate a BSG sub-culture (1 mL) at a final dilution of 1:10. This sub-culture was grown for 3 h to an OD600~0.5 before being used to inoculate experimental cultures at a final dilution of 1:50. The experimental media consisted of a modified YCFA media (mYCFA; casitone (2.5 g/L), yeast extract (0.625 g/L), cysteine (0.5 g/L), magnesium sulfate heptahydrate (f.c. 365 μM), calcium chloride dihydrate (f.c. 610 μM), sodium bicarbonate (4 g/L), dipotassium phosphate (0.45 g/L), monopotassium phosphate (0.45 g/L), sodium chloride (0.9 g/L), sodium acetate (2.71 g/L), Hemin (50 mg/L), Vitamin K1 (0.25 mg/L), ferrous sulfate (4 μg/mL), ATCC vitamin mix (1% v/v)) supplemented with glucose (15 mM, Sigma) plus each compound (150 μM) or glucose (15 mM, Sigma) plus DMSO (0.15%, Sigma). Bacterial growth was monitored by measuring the optical density at 600 nm (OD600) of each culture in a 384 well plate with an Epoch2 spectrophotometer (BioTek Instruments) and MicroPlate stacker (Agilent BioTek) for 24 hours.

Compound | selective killing of C. difficile (C. difficile [1]) | liberation of aglycone from polyphenolic glycoside (B. uniformis) | anti-microbial effect on C. difficile in vivo (C. difficile [2]) | C. difficile burden in vivo (C. difficile [2]) | growth inhibition of Clostridioides difficile (C. difficile isolates; 150 μM, 20 C. difficile isolates, growth ratio (AUC) vs vehicle (FIG. 3B)) | killing / growth inhibition of diverse C. difficile isolates (C. difficile isolates; in vitro, media plus compound, culture optical density (FIG. 4))
O=C(CCc1ccc(O)cc1)c1c(O)cc(O)cc1O [phloretin] | selectively kill the enteric pathogen C. difficile; also recorded: selectively kill hypervirulent C. difficile | liberates phloretin and resveratrol from their natural prodrugs in vitro | potent anti-microbial effects on C. difficile in vivo | decreases C. difficile burden | – | –
Oc1ccc(C=Cc2cc(O)cc(O)c2)cc1 [resveratrol] | selectively kill the enteric pathogen C. difficile; also recorded: selectively kill hypervirulent C. difficile | liberates phloretin and resveratrol from their natural prodrugs in vitro | potent anti-microbial effects on C. difficile in vivo | decreases C. difficile burden | showed growth inhibition of Clostridioides difficile; also recorded: universally anti-microbial against C. difficile | kills many diverse C. difficile isolates; also recorded: showed growth inhibition of C. difficile
